According to US20070066996A1, “Modafinil-based neurorehabilitation of impaired neurological function associated with brian injury” (priority 2003, published 2007):
Entries after “also recorded” stand apart in the source; their conditions may differ. Marks after values point to notes of the source that are not given here.

Key:
extracellular dopamine = conditions: Wisor et al., J. Neuroscience 2001; cited from earlier work
[1] = test system: chronic post-TBI patients with motor deficits; test: Pinch strength (mechanic dynamometer), open-label modafinil study; type: in vivo, human
Procedure: (§1) Two chronic post-TBI patients with motor deficits were treated for two consecutive weeks with modafinil (a single 200 mg/day dose, orally). Additionally, three hours after administration of the drug, these patients received one hour of occupational therapy in the morning and one hour of motor training at home in the afternoon. Primary outcomes were the pinch strength measured with a mechanic dynamometer, the number of blocks that the patient can pass in one minute in a box and block test, and the time required to complete a grooved pegboard test as described below.
The Pinch Force Dynamometer is a hand-held device capable of measuring instantaneous strength of the thumb and opposing finger or groupings of fingers as a function of time. The principle components are a pinch force transducer, instrumentation amplifier, and associated cables. Dynamic voltage representing instantaneous finger(s) pinch strength as a function of time is taken from the output of the instrumentation amplifier and sent to a laptop computer or to a data acquisition system for data manipulation, display, correlation with other data sources, and/or storage.
(§2) Patients were assessed at baseline, treated for two weeks, assessed at the end of the treatment, and assessed again 90 days after commencement of treatment.
(§3) Patients were chronic post-traumatic brain injured individuals that were treated for two consecutive weeks with a 200 mg/day, single dose, of modafinil from Monday through Friday. Additionally, the patients received one hour of occupational therapy three hours after the oral intake of the drug and one hour of motor training at home. Primary outcomes were the pinch strength measured with a mechanic dynamometer, the number of blocks that the patient could pass in one minute in a box and block test, and the time required to complete a grooved pegboard at baseline. Primary outcomes were assessed at two weeks and 90 days from commencement of treatment.

[2] = test system: chronic post-TBI patients with motor deficits; test: Open-label study: overall functional motor performance and reported adverse effects; type: in vivo, human; conditions: two patients
Procedure: A clinical study was performed to evaluate the effect of modafinil on the functional outcome of the paretic arm of patients recovering from a brain injury.
as §1, §2, §3

[3] = test system: chronic post-TBI patients with motor deficits; test: Box and Block Test of manual dexterity, open-label modafinil study; type: in vivo, human
Procedure: as §1
The “Box and Block Test” is a standardized test of manual dexterity, which provides a baseline for upper extremity manual dexterity and gross motor coordination. The test is quick and simple to administer and uses […] (1″) colored wooden blocks.
as §2, §3

[4] = test system: dopamine transporter knock-out mice; conditions: Wisor et al. 2001; cited from earlier work
[5] = test system: individuals who have sustained a brain injury; conditions: individuals with brain injury; L-dopa at high doses; co-filed international application; cited from earlier work

## NC(=O)C[S+]([O-])C(c1ccccc1)c1ccccc1 (stereo not drawn) [modafinil, 2-[(diphenylmethyl)sulfinyl]acetamide]
Extracellular dopamine
  extracellular dopamine: increased extracellular dopamine
[1]; Patient 1, affected hand, 14 days, modafinil 200 mg/day orally for two weeks plus therapy, baseline 14.3
  Pinch Strength: 16.8 Pounds
[1]; Patient 1, affected hand, 90 days from commencement, baseline 14.3
  Pinch Strength: 17.6 Pounds
[1]; Patient 1, intact hand, 14 days, baseline 13.5
  Pinch Strength: 14.6 Pounds
[1]; Patient 1, intact hand, 90 days, baseline 13.5
  Pinch Strength: 15 Pounds
[1]; Patient 2, affected hand, 14 days, baseline 17
  Pinch Strength: 21.3 Pounds
[1]; Patient 2, affected hand, 90 days, baseline 17
  Pinch Strength: 19.3 Pounds
[1]; Patient 2, intact hand, 14 days, baseline 23
  Pinch Strength: 24 Pounds
[1]; Patient 2, intact hand, 90 days, baseline 23
  Pinch Strength: 23.6 Pounds
[2]; 90 days after commencement of treatment
  persistence of the improvements: sustained at 90 days
[2]; modafinil 200 mg/day orally, two weeks
  adverse effect reported with the medication: Neither of the patients reported any adverse effect; also recorded: did not report any adverse effect
[2]; two-week course of modafinil
  functional motor performance in the intact hand: slight improvement
[2]; two-week course of modafinil 200 mg/day orally
  functional motor performance in the paretic hands: improved functional motor performance
[3]; Patient 1, affected hand, 14 days, baseline 34
  Box and Block: 46 # blocks passed in 1 min
[3]; Patient 1, affected hand, 90 days, baseline 34
  Box and Block: 46 # blocks passed in 1 min
[3]; Patient 1, intact hand, 14 days, baseline 54
  Box and Block: 59 # blocks passed in 1 min
[3]; Patient 1, intact hand, 90 days, baseline 54
  Box and Block: 55 # blocks passed in 1 min
[3]; Patient 2, affected hand, 14 days, baseline 30
  Box and Block: 40 # blocks passed in 1 min
[3]; Patient 2, affected hand, 90 days, baseline 30
  Box and Block: 40 # blocks passed in 1 min
[3]; Patient 2, intact hand, 14 days, baseline 54 (table) / 62
  Box and Block: 65 # blocks passed in 1 min
[3]; Patient 2, intact hand, 90 days, baseline 54 (table) / 62
  Box and Block: 76 # blocks passed in 1 min
[4]
  response to the action of modafinil: unresponsive

## N[C@@H](Cc1ccc(O)c(O)c1)C(=O)O [L-dopa]
[5]
  treating impaired neurological function, including emergence from coma and other altered consciousness states: particularly effective

## CN1CCc2cccc3c2[C@H]1Cc1ccc(O)c(O)c1-3 [apomorphine]
[5]
  treating impaired neurological function, including emergence from coma and other altered consciousness states: particularly effective
